One assay concerns the target T1, human calpain I (Homo sapiens, UniProt P07384).
T1 construct: enzyme purified from human erythrocytes; purchased Calbiochem 208713; host or cells: human erythrocytes (native tissue source)
T1 sequence (P07384 1-714): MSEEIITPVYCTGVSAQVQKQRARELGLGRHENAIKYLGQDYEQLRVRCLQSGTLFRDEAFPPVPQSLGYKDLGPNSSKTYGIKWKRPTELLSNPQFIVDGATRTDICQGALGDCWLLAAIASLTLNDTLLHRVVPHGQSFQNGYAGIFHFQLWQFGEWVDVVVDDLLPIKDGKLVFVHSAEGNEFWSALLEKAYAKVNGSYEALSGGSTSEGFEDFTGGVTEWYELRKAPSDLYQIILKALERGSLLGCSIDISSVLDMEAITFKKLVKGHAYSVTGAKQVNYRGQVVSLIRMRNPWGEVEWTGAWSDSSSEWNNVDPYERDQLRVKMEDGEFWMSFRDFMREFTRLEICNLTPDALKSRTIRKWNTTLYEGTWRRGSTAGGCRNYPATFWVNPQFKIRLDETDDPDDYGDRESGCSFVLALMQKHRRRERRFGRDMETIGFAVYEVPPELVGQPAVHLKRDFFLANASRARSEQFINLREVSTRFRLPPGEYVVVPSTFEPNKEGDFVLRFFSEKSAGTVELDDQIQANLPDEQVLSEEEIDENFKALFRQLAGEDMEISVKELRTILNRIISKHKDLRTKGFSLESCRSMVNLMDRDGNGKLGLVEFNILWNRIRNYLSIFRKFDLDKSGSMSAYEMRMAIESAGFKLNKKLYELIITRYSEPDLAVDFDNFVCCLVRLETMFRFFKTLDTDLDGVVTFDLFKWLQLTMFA
T1 sequence (P04632 1-268 partner): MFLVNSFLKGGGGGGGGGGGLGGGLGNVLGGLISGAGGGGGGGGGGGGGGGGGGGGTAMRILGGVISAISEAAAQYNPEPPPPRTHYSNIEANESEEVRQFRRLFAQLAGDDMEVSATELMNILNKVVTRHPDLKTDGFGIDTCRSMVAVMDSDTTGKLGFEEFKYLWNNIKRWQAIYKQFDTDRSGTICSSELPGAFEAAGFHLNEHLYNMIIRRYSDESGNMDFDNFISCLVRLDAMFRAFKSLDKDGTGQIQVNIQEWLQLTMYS
The experiment in a line: Effects on human calpain I (acellular, Suc-Leu-Tyr-AMC fluorescence). The assay is classed as biochemical. The note with it: enzyme purified from human erythrocytes; 1 h at 25°C; read-out: Inhibition human calpain I, acellular [IC50 (nM)]. As to the method:
The test consists of measuring the activity of the enzyme (enzyme purified from human erythrocytes) which is incubated in a buffer in the presence of a peptide substrate coupled with a fluorochrome (amino-methylcourmarin, AMC) and calcium. The enzyme activated by the calcium, proteolyses the substrate and releases the AMC fragment. The AMC released fluoresces at 460 nm under excitation at 380 nm. The activity of the enzyme is therefore proportional to the quantity of fluorescence i.e. of free AMC fragment. The fluorescence (380/460 nm) is measured using a multi-well fluorimeter (Victor 2, Wallac).
Assay is carried out in 96-well microplates with transparent bottoms and black walls in which 10 μl per well of substance to be tested in DMSO 10%, 45 μl of reaction mixture containing the human calpain I at 2.2 U/ml (Calbiochem, ref: 208713), the Suc Leu Tyr-AMC substrate (Bachem, ref: I-1355) at 1.1 mM in a buffer (Tris-HCl 110 mM; NaCl 110 mM; EDTA 2.2 mM; EGTA 2.2 mM; mercaptoethanol 1.1 mM) are distributed. The reaction is initiated by adding 45 μl of CaCl2 22mM. To determine the background noise, control wells without calcium are added to the plate (10 μL DMSO 10%+45 μL of buffer with the enzyme and the susbtrate +45 μL H2O). In order to determine the total activity of the enzyme control wells containing no product are added to the plate (10 μL DMSO 10%+45 μL of buffer with the enzyme and the substrate +45 μL of CaCl2 22 mM ). Each concentration of the products (0.1 nM to 10 μM) is tested in duplicate. The plates are shaken and incubation takes place for one hour at 25° C. in darkness. The fluorescence is read at 380/460 nm using the Victor.

For the next assay, the system named is rat glial cells C6. As to the kind of experiment: Protection from necrosis induced by maitotoxin, C6 (wst-1 viability). The class given is cell-based. The method, then:
Human neuroblastomas SHSY5Y and rat glial cells C6 are seeded at 25 000 cells per well in 96-well plates in DMEM 10% FBS for 24 hours. The L6 rat myoblasts are seeded at 1000 cells per well in DMEM 10% FBS on 96-well microplates coated beforehand with gelatin 0.5% PBS. After culture for 3 days the medium is removed and replaced with a differentiation medium (DMEM+10 μg/ml of insulin+100 μg/ml of transferrin). 50 μl of product A plus 50 μl of solvent or 50 μl of product B are placed in the wells. After incubation for 1 hour at 37° C. under an atmosphere of 5% CO2, 10 μl of maitotoxin is added in order to obtain a final concentration of 0.1 nM to 1 nM (according to the cell type). After incubation for 3 hours at 37° C. under an atmosphere of 5% CO2, the cell viability is determined by adding 10 μl of tetrazolium salts (wst-1, Roche, ref: 1644807). The tetrazolium salts are cleaved into formazan molecules by mitochondrial dehydrogenases. The quantity of formazan formed is directly correlated to the number of metabolically active cells in the culture. Measurement of the absorbance of the formazan is carried out using a multiwell photometer at a wavelength of 420 nm against a reference wavelength of 620 nm.
The theoretical effect was obtained by multiplying the percentage of dead cells in the presence of product A by the percentage of dead cells in the presence of product B (Table 3). The percentage protection against cell death induced by MTX being the percentage of cells kept alive in the presence of the product or products.
In the light of the previous results, the combination of Example 1 with product A and product B at a rate of 100 μM of each of the products is carried out on human neuroblastomas (SHSY5Y; (Table 5A) and on glial cells with 25 μM of product A and 50 μM of product B (C6; Table 5B) on a larger number of cases.

The subject of assay [1] is lipidic peroxidation of rat cerebral cortex homogenate. The experiment in a line: In vitro lipidic peroxidation (Fenton reaction, MDA) in rat cerebral cortex membranes. The conditions noted are these: iron/ascorbate, read-out: Inhibition of lipidic peroxidation [IC50 (μM)]. The assay is classed as biochemical. The method, then: The test consists of inducing lipidic peroxidation by Fenton reactions in the presence of iron and ascorbate. The degree of lipidic peroxidation is determined by the concentration of malonaldehyde (MDA). The MDA produced by the lipidic peroxidation of unsaturated fatty acids is a good indicator of lipidic peroxidation (Esterbauer et al, 1990; Meth. Enzymol. 186: 407421). For this colorimetric test, the condensation of a molecule of MDA with two molecules of chromogenic reagent R (N-methyl-2-phenylindole) produces a stable chromophore the maximum absorbance wavelength of which is equal to […].
The membranes are prepared from the cortexes of male Sprague Dawley rats weighing 200 to 250 g. The animals are sacrificed by decapitation and the brains are immediately removed and rinsed in cold Tris HCl 20 mM pH 7.4. The cortexes, after dissection and removal of the white matter, are then ground with the Thomas potter, in Tris HCl buffer 20 mM pH 7.4 at 4° C. The homogenate obtained is centrifuged at low speed in order to eliminate the large debris (515 g for 15 minutes at 4° C.). The supernatant is then distributed into polycarbonate centrifugation tubes and centrifuged at 51500 g for 25 min at 4° C. The membrane pellets are kept at −80° C.
On the day of the experiment, the frozen membranes are resuspended at a concentration of 0.5 equivalent grams of cortex per 5 ml of Tris HCl buffer 20 mM pH 7.4 and homogeneized using a combitips. In 96-well “deep-well” 1 ml polypropylene plates with a conical base, 5 μl per well of the product to be tested or of solvent is mixed with 40 μl of rat cerebral cortex homogenate by centrifugation (800 rpm). The plates are covered with a self-adhesive aluminium sheet and incubated at 37° C. for 15 minutes under agitation. […]
The membranes and the supernatants are separated by filtration under vacuum on a 96-well plate with a multiscreen filtering base NA (Millipore, ref: MANANLY 50). The absorbance of the supernatants recovered in the 96-well plates is read using a photometer.

Assay [2] relates to calpain activity in rat glial cells (C6). As to the kind of experiment: In situ calpain activity in rat glial cells C6 stimulated by maitotoxin. The assay is classed as cell-based. The conditions noted are these: read-out: Inhibition human calpain I, in situ (C6) [IC50 (nM)]; n = 3; maitotoxin 1 nM; 1 h 30 min. The method, then: Human neuroblastomas SHSY5Y and rat glial cells C6 are seeded at a rate of 50,000 and 25,000 cells respectively per well on 96-well plates in DMEM 10% FBS. The next day, the cells which have adhered are washed 3 times in DMEM medium without serum and 40 mM Hepes. 100 microlitres of product B is placed in the wells. After incubation for 1 hour at 37° C. under an atmosphere of 5% CO2, 10 μl containing the fluorescent substrate of calpain (Suc-Leu-Tyr-AMC) and maitotoxin (Sigma, ref: M-9159), in order to obtain a final concentration in the well of 100 μM and of 1 nM respectively are added.
In order to determine the total activity of the cell enzyme, wells containing no product are added to the plate (100 μL DMSO 100th plus 10 μl of MTX and substrate). The background noise is determined by adding control wells with no MTX. Each concentration of the products (0.3 μM to 200 μM for the SHSY5Y's and 0.01 μM to 100 μM for the C6's) is tested in triplicate. The plates are shaken, the fluorescence is read at 380/460 nm using the Victor at T zero. Incubation takes place for four hours for the SHSY5Y and 1 hour 30 minutes for the C6 cells at 30° C. in darkness.

[3] abbreviates: single product at 100 μM, n = 1.

The structures appear in SMILES notation. “And” between values parts separate entries of the source, which are not always exact repeats. Equal values may be shown once. Non-standard residues stand in square brackets, D forms with d. Residues, ends and D or L forms follow the SMILES beside them. ξ: configuration not given here. *: point of attachment. ξF = NC(Cc1ccccc1)C(=O)O; Cbz = O=C(OCc1ccccc1)*

The values that follow come from patent US20070265208A1, “Association of calpain inhibitors and reactive oxygen species trapping agents” (priority 2000, published 2007).

By IC50 is commonly meant the concentration needed to halve the response being measured.

For `CC(=O)N[C@@H](CC(C)C)C(=O)N[C@@H](CC(C)C)C(=O)N[C@H](C=O)CCCNC(=N)N` [LEUPEPTIN, leupeptin], the IC50 at human calpain I is 73 nM.
In the case of `Oc1ccc(Nc2ccccc2)cc1` [EXAMPLE 5 A, 4-hydroxydiphenylamine], the “Protection from necrosis induced by MTX on C6” value (“Protection” below) came to 17.90% in the assay on rat glial cells C6 (setting [3]) and 9.43% in the assay with rat glial cells C6 (single product at 100 μM, n = 1, listed as EXAMPLE 6 A). Also, the IC50 in assay [1] is 0.093 µM.
For the molecule `O=C(O)C(S)=Cc1ccc(I)cc1` [EXAMPLE 4 B, 3-(4-iodophenyl)-2-mercapto-2-propenoic acid], on human calpain I, the IC50 turned out to be 5140 nM. Besides, the “Protection” value was 0.69% in the assay on rat glial cells C6 (single product at 25 μM); 0.36% and 2.75% with rat glial cells C6 (setting [3]).
As for `CC(C)C[C@H](NC(=O)OCc1ccccc1)C(=O)NC(C=O)Cc1ccccc1` (stereo partly drawn) [EXAMPLE 2 B, benzyl (1S)-1-{[(1-benzyl-2-oxoethyl)amino]carbonyl)-3-methylbutylcarbamate] (Cbz-Leu-[ξF]-aldehyde), the IC50 on human calpain I is 8 nM; in assay [2], 2200 ± 290 nM. The “Protection” value in the assay with rat glial cells C6 (single product at 50 μM, n = 3 for Example 2, else n = 1) is 12.05 ± 2.82%; in the assay with rat glial cells C6 (single product at 50 μM, n = 3 for Example 2, else n = 1, listed as Z-Leu-Phe-H), “inactive”.
